US20150174108A1, “METHOD OF WEIGHT REDUCTION” (priority 2012, published 2015)
Entries after “also recorded” stand apart in the source; their conditions may differ.

Legend:
Type in all cases: in vivo, human
[1] = 24 week randomised placebo-controlled double-blind clinical trial: body mass index; conditions: for ΔBMI Week 24, Mean ± SD / ΔBMI Week 24, Median (range): change from baseline (Day 0) to Week 24; for BMI Week 24, Mean ± SD / BMI Week 24, Median (range): type 2 diabetes patients
Experimental: (§1) The safety and efficacy of methazolamide (40 mg administered twice daily) as a potential treatment for type 2 diabetes were evaluated in a 24 week, randomised, placebo-controlled double-blind clinical trial. The primary efficacy endpoint for the clinical trial was a reduction in HbA1c (ΔHbA1c) from baseline with methazolamide, relative to placebo, after 24 weeks of treatment. Secondary efficacy endpoints included reduction in body weight and improvements in cardiovascular measures such as blood pressure. The primary safety measurement was the effect of methazolamide, compared to placebo, on venous blood gas parameters; a measure of acidosis.
(§2) The clinical trial initially enrolled type 2 diabetes patients who were not treated with any anti-diabetic agent prior to entry into the trial (NAIVE) The trial was expanded to include participants who had been treated with metformin for at least 3 months and were on a stable metformin dose for at least 8 weeks prior to entering the trial (MET). The metformin dose was not altered throughout the trial.
(§3) Participants randomized into the clinical trial were administered either daily doses of methazolamide (40 mg b.i.d.) or placebo for 24 weeks. Methazolamide was taken as 1×30 mg capsule and 1×10 mg capsule per dose at breakfast and dinner. Placebo (microcrystalline cellulose) was administered in identical presentation. After an initial randomization visit to the clinic (Day 0), participants returned to the clinic at weeks 1, 2, 4, 8, 12, 18 and 24 for physical examinations, laboratory analyses, body composition measures, evaluation of glycemic parameters (fasting blood glucose, fasting insulin, HbA1c) and measurement of venous blood gas analysis.
(§4) Mean changes in body weight over time are depicted in FIG. 1.

[2] = 24 week randomised placebo-controlled double-blind clinical trial: HbA1c; conditions: for ΔHbA1c Week 24, Mean ± SD / ΔHbA1c Week 24, Median (range): change from baseline (Day 0) to Week 24; for HbA1c Week 24, Mean ± SD / HbA1c Week 24, Median (range): type 2 diabetes patients, methazolamide 40 mg b.i.d.
Experimental: as §1, §2, §3, §4

[3] = 24 week randomised placebo-controlled double-blind clinical trial: body weight; conditions: for ΔBW Week 24, Mean ± SD / ΔBW Week 24, Median (range): change from baseline (Day 0) to Week 24; for body weight change over the study: metformin-treated patients who received placebo; for BW Week 24, Mean ± SD / BW Week 24, Median (range): type 2 diabetes patients
Experimental: as §1, §2, §3, §4
Thus an unexpected and selective effect of methazolamide on the metformin-treated patients was observed.

[4] = difference to the matching placebo group, Week 24

Structure (SMILES)	ΔBMI Week 24, Mean ± SD [1] [kg/m^2]	ΔBMI Week 24, Median (range) [1]	BMI Week 24, Mean ± SD [1] [kg/m^2]	BMI Week 24, Median (range) [1]	ΔHbA1c Week 24, Mean ± SD [2] [%]	ΔHbA1c Week 24, Median (range) [2]	HbA1c Week 24, Mean ± SD [2] [%]	HbA1c Week 24, Median (range) [2]	ΔBW Week 24, Mean ± SD [3] [kg]	ΔBW Week 24, Median (range) [3]	body weight change over the study ([3]; 24 weeks)	body weight change over the study ([3]; 24 weeks, listed as metformin and placebo)	BW Week 24, Mean ± SD [3] [kg]	BW Week 24, Median (range) [3]	ΔBMI Week 24, MTZ − Placebo [1, 4]	ΔHbA1c Week 24, MTZ − Placebo [2, 4] [%]	effect on body weight versus placebo ([3]; Naïve patients not using metformin, 24 weeks)	ΔBW Week 24, MTZ − Placebo [3, 4]	average body weight lost over the 24 week period ([3]; metformin-treated patients further treated with methazolamide) [kg]	body weight lost as share of starting body weight ([3]; metformin-treated patients further treated with methazolamide, 24 weeks) [%]
CN(C)C(=N)NC(=N)N [Placebo + Met, metformin]	−0.06 ± 0.58	−0.2 (−0.8, +1.5) kg/m^2	29.7 ± 4.7	29.1 (23.6-39.5) kg/m^2	−0.04 ± 0.71	−0.2 (−0.9, +1.4) %	7.50 ± 0.84	7.3 (6.6, 9.8) %	-0.3 ± 1.7	−0.5 (−2.8, +3.9) kg	largely stable body weight	did not significantly change	90.3 ± 15.9	87.6 (68.5, 133.6) kg	–	–	–	–	–	–
CC(=O)/N=c1/sc(S(N)(=O)=O)nn1C [methazolamide]	−0.77 ± 0.79	−0.6 (−3.1, +0.5) kg/m^2	31.5 ± 5.1	32.0 (24.7-39.0) kg/m^2	−0.26 ± 0.72	−0.3 (−2.1, +0.8) %	6.88 ± 0.63	7.0 (6.1, 8.0) %	-2.3 ± 2.4	−1.8 (−9.8, +1.3) kg	–	–	90.7 ± 14.0	95.3 (63.3, 106.0) kg	+0.4 kg/m^2	−0.1	no differences were observed; also recorded: No such additional effect	+0.8 kg	2.2	2
